Tests used:
Format in all cases: cell-based
[1] = molecular target: T1, Adenosine 3 receptor (Homo sapiens, UniProt P0DMS8); experiment: Agonist activity against adenosine 3 receptor subtype (CHO cells, forskolin-enhanced cAMP, SPAP reporter); settings: EC50 ratio to NECA; transfected CHO cells, forskolin-enhanced cAMP reflected by SPAP
T1 construct: expressed in transfected cells; host or cells: Chinese hamster ovary (CHO) cells, co-transfected with a CRE-SPAP reporter
T1 sequence (P0DMS8 1-318): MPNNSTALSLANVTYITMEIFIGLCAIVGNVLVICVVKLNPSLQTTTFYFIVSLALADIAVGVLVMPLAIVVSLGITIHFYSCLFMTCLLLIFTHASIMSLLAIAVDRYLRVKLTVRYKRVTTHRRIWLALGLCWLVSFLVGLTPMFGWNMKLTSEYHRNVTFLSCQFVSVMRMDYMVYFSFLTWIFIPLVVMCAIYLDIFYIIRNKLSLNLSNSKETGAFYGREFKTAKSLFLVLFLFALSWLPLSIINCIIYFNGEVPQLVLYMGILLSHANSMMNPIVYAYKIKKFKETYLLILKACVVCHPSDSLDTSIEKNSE
Protocol: (§1) (1) Agonist Activity Against Adenosine 2a, Adenosine 1 and Adenosine 3 Receptor Subtypes.
(§2) Agonist selectivity of compounds against other human adenosine receptors is determined using Chinese hamster ovary (CHO) cells transfected with the gene for the relevant human adenosine receptor following a method based on that of Castanon and Spevak, 1994. The CHO cells are also transfected with cyclic AMP response elements promoting the gene for secreted placental alkaline phosphatase (SPAP) (Wood, 1995). The effect of test compounds may be determined by their effects on basal levels of cAMP (A2a) or on forskolin-enhanced cAMP (A1 and A3) as reflected by changes in levels of SPAP. EC50 values for compounds may then be determined as a ratio to that of the non-selective agonist N-ethyl carboxamide adenosine (NECA).
(§3) Values given in the Table are EC50 values as a ratio of that of NECA.

[2] = molecular target: T2, Adenosine 1 receptor (Homo sapiens, UniProt P30542); experiment: Agonist activity against adenosine 1 receptor subtype (CHO cells, forskolin-enhanced cAMP, SPAP reporter); settings: EC50 ratio to NECA; transfected CHO cells, forskolin-enhanced cAMP reflected by SPAP
T2 construct: expressed in transfected cells; host or cells: Chinese hamster ovary (CHO) cells, co-transfected with a CRE-SPAP reporter
T2 sequence (P30542 1-326): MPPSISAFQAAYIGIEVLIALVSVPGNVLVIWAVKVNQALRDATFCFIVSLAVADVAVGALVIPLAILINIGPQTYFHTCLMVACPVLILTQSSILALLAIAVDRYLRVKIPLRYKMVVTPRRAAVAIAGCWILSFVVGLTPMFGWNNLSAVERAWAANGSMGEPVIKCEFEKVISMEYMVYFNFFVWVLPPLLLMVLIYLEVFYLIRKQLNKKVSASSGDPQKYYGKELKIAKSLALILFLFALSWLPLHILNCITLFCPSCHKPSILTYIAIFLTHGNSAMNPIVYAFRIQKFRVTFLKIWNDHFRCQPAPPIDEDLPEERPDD
Protocol: as §1, §2, §3

[3] = molecular target: T3, Adenosine 2a receptor (Homo sapiens, UniProt P29274); experiment: Agonist activity against adenosine 2a receptor subtype (CHO cells, cAMP response element/SPAP reporter); settings: EC50 ratio to NECA; transfected CHO cells, basal cAMP reflected by SPAP
T3 construct: expressed in transfected cells; host or cells: Chinese hamster ovary (CHO) cells, co-transfected with a CRE-SPAP reporter
Protocol: as §1, §2, §3

T3 sequence (P29274 whole entry): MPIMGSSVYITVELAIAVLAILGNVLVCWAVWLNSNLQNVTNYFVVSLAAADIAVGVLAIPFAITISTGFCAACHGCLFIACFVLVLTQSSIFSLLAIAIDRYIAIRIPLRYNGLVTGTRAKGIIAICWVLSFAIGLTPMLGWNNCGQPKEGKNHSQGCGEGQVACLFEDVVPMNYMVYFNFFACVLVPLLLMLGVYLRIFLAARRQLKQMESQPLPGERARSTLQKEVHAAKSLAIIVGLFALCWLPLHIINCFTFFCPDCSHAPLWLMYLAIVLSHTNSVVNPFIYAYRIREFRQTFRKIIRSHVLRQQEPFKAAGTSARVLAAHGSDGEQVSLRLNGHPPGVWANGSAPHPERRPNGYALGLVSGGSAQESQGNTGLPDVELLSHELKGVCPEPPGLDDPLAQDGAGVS

Compound	A3 (EC50 values as a ratio of that of NECA) [1]	A1 (EC50 values as a ratio of that of NECA) [2]	A2a (EC50 values as a ratio of that of NECA) [3]
CCc1cc([C@H]2O[C@@H](n3cnc4c(NCC(c5ccccc5)c5ccccc5)nc(N[C@H]5CC[C@H](N)CC5)nc43)[C@H](O)[C@@H]2O)on1.O=CO.O=CO (relative stereo) [Example 19, (2R,3R,4S,5S)-2-[2-(trans-4-Amino-cyclohexylamino)-6-(2,2-diphenyl-ethylamino)-purin-9-yl]-5-(3-ethyl-isoxazol-5-yl)-tetrahydro-furan-3,4-diol diformate]	>295	670.2	2.41
CCc1cc([C@H]2O[C@@H](n3cnc4c(NCC(c5ccccc5)c5ccccc5)nc(NCCN5CCCCC5)nc43)[C@H](O)[C@@H]2O)on1.O=CO.O=CO [Example 1, (2R,3R,4S,S)-2-[6-(2,2-Diphenyl-ethylamino)-2-(2-piperidin-1-yl-ethylamino)-purin-9-yl]-5-(3-ethyl-isoxazol-5-yl)-tetrahydro-furan-3,4-diol diformate]	>436	288.5	0.52
CCc1cc(C2OC(n3cnc4c(NCC(c5ccccc5)c5ccccc5)nc(NCCN5CCOCC5)nc43)C(O)C2O)on1 [Example 2, (2R,3R,4S,5S)-2-[6-(2,2-Diphenyl-ethylamino)-2-(2-morpholin-4-yl-ethylamino)-purin-9-yl]-5-(3-ethyl-isoxazol-5-yl)-tetrahydro-furan-3,4-diol diformate.]	>545	88.9	0.43
CCc1cc(C2OC(n3cnc4c(NCCc5ccccc5)nc(NCCN5CCCCC5)nc43)C(O)C2O)on1.O=CO.O=CO [Example 3, (2R,3R,4S,5S)-2-(3-Ethyl-isoxazol-5-yl)-5-[6-phenethylamino-2-(2-piperidin-1-yl-ethylamino)-purin-9-yl]-tetrahydro-furan-3,4-diol diformate]	>375	231	1.32
CCc1cc([C@H]2O[C@@H](n3cnc4c(NCC(c5ccccc5)c5ccccc5)nc(NCCO)nc43)[C@H](O)[C@@H]2O)on1.O=CO [Example 4, (2R,3R,4S,5S)-2-[6-(2,2-Diphenyl-ethylamino)-2-(2-hydroxy-ethylamino)-purin-9-yl]-5-(3-ethyl-isoxazol-5-yl)-tetrahydro-furan-3,4-diol formate]	>267	109.3	0.92
CCc1cc([C@H]2O[C@@H](n3cnc4c(NC(CC)CC)nc(NCCc5cn(C)cn5)nc43)[C@H](O)[C@@H]2O)on1.O=CO.O=CO [Example 5, (2S,3S,4R,5R)-2-(3-Ethyl-isoxazol-5-yl)-5-{6-(1-ethyl-propylamino)-2-[2-(1-methyl-1H-imidazol-4-yl)-ethylamino]-purin-9-yl}-tetrahydro-furan-3,4-diol diformate]	>237	30.1	0.11
CCc1cc([C@H]2O[C@@H](n3cnc4c(NC(CC)CC)nc(NCCN5CCCCC5)nc43)[C@H](O)[C@@H]2O)on1.O=CO.O=CO [Example 6, (2S,3S,4R,5R)-2-(3-Ethyl-isoxazol-5-yl)-5-[6-(1-ethyl-propylamino)-2-(2-piperidin-1-yl-ethylamino)-purin-9-yl]-tetrahydro-furan-3,4-diol diformate]	>393	66.4	0.49

— US6762170B1, “2-(purin-9-yl)-tetrahydrofuran-3,4-diol derivatives” (SmithKlineBeecham Corporation, priority 1998, dated 2004)
